In brackets after ≈: the same amount, converted by molar mass. Positions of bridges follow the written chain, without caps; N, C: chain ends. Non-standard residues stand in square brackets, D forms with d. Residues, ends and D or L forms follow the SMILES beside them. S5 = C=CCCC[C@](C)(N)C(=O)O
Tests used:
E. coli = format: cell-based, Escherichia coli
Outline: (§1)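 MIC by CLSI-adapted microbroth dilution; MHB or MHB II; inoculum 5×10^5 CFU/ml final; 20-24 h, 37 °C; endpoint = no visible growth.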

K. pneumoniae = format: cell-based, Klebsiella pneumoniae
Outline: as §1

in vitro [1] = format: cell-based; settings: human, Inhibitory Concentration at 50% Cytotoxicity (IC50) Human Liver Cells (HepG2)
Outline: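 Cytotoxicity read by CellTiter-Glo luminescence after 48 h at 37 °C exposure to serially diluted StAMPs or vehicle. HepG2 cells were grown in EMEM plus 10% FBS and given 4 h to attach before dosing; peptides came from a 5 mg/mL aqueous stock.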

A. baumannii = format: cell-based, Acinetobacter baumannii
Outline: as §1

in vitro [2] = format: cell-based; settings: human
Description: Cell culture: RPTEC were maintained in MEM media supplemented with growth factors. HEPG2 cell line was maintained in Eagle's Minimum Essential Medium (EMEM) supplemented with fetal bovine serum to a final concentration of 10%.
90 minute cytotoxicity assay: Cells were plated in a 96-well format, and after overnight incubation, media was replaced with fresh media. Serial dilutions of StAMPs from a 5 mg/mL water stock, or vehicle, were added to the cells in a final volume of 100 μl. After incubating at 37° C. for 90 min, 50 μl of cell culture media was transferred to a clear 96-well plate, incubated with 50 μl of lactate dehydrogenase (LDH) assay reagent for 10 min, and absorbance measured at 490 nm on a microplate reader.
Renal toxicity was measured after 90 minutes of incubation, while liver toxicity was measured after 48 hours of incubation with StAMPs. N/A=not tested. The following apply to all peptides (i.e., StAMPs) listed in Tables A-C: Crosslinks (X^1—X^2 and X^3—X^4): (alk); N-terminus: —NH2; C-terminus: amidated with —NH2; counterion: Cl^−. The following apply to all peptides (i.e., StAMPs) listed in Table D: Crosslinks (X^1—X^2 and X^3—X^4): (alk); N-terminus: —NH2; C-terminus: as shown in table; counterion: Cl^−.
StAMP Micelle Formulation: DSPE-MPEG(2000) was suspended in buffered saline at 50-100 mg/mL overnight. StAMP stock solutions at 5-20 mg/mL in buffered saline were prepared and equal volumes of micelle and StAMP stock solution were mixed at the desired StAMP:Lipid ratio. Suspensions were allowed to sit for 5-10 minutes at room temperature before being used in in vitro and in vivo assays.
In Table E, the StAMP is StAMP 4 (Table A) and “Lipid”=DSPE-MPEG(2000).

P. aeruginosa = format: cell-based, Pseudomonas aeruginosa
Outline: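 MIC taken as lowest peptide concentration with no visible growth after 20-24 h at 37 °C. Peptide serial dilutions from water stocks met P. aeruginosa inoculum (5×10^5 CFU/ml final) in MHB or MHB II, per a CLSI-adapted microbroth protocol.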

S. aureus = format: cell-based, Staphylococcus aureus
Outline: as §1

| Structure (SMILES) | Minimum Inhibitory Concentration (MIC) E. coli (E. coli) | Minimum Inhibitory Concentration (MIC) K. pneumoniae (K. pneumoniae) | IC50 at 48 hours (in vitro [1]) | Minimum Inhibitory Concentration (MIC) A. baumannii (A. baumannii) | IC50 at 90 min (in vitro [2]) | Minimum Inhibitory Concentration (MIC) P. aeruginosa (P. aeruginosa) | Minimum Inhibitory Concentration (MIC) S. aureus (S. aureus) |
| --- | --- | --- | --- | --- | --- | --- | --- |
| CC(C)[C@@H]1NC(=O)[C@@](C)(NC(=O)[C@H](C)NC(=O)[C@H](CCCCN)NC(=O)CNC(=O)[C@H](Cc2ccccc2)NC(=O)[C@H](CCCCN)NC(=O)[C@H](CCCCN)NC(=O)[C@H](CCCCN)NC(=O)[C@H](CCCCN)NC(=O)[C@H](CCCCN)NC(=O)[C@]2(C)CCCC=CCCC[C@](C)(NC(=O)CN)C(=O)NCC(=O)N[C@@H](CCCCN)C(=O)N[C@@H](Cc3ccccc3)C(=O)N2)CCCC=CCCC[C@@](C)(C(=O)N[C@@H](C)C(=O)N[C@@H](CCCCN)C(=O)N[C@@H](CCCCN)C(N)=O)NC(=O)[C@H](CCC(=O)O)NC(=O)CNC1=O [compound 4] (H-G[S5]GKF[S5]KKKKKFGKA[S5]VGE[S5]AKK-NH2; staple 2-6, 16-20) | 2 mg/L | 6 mg/L | 127 mg/L (≈ 49.5 µM) | 3 mg/L | 105 mg/L (≈ 40.9 µM) | 3 mg/L | >64 mg/L |
| CC(C)[C@@H]1NC(=O)[C@@](C)(NC(=O)[C@H](C)NC(=O)[C@H](CCCCN)NC(=O)CNC(=O)[C@H](Cc2ccccc2)NC(=O)[C@H](CCCCN)NC(=O)[C@H](CCCCN)NC(=O)[C@H](CCCCN)NC(=O)[C@H](CCCCN)NC(=O)[C@H](Cc2c[nH]cn2)NC(=O)[C@]2(C)CCCC=CCCC[C@](C)(NC(=O)CN)C(=O)NCC(=O)N[C@@H](CO)C(=O)N[C@@H](Cc3ccccc3)C(=O)N2)CCCC=CCCC[C@@](C)(C(=O)N[C@@H](C)C(=O)N[C@@H](CCCCN)C(=O)N[C@@H](CCCCN)C(N)=O)NC(=O)[C@H](CCC(=O)O)NC(=O)CNC1=O [compound 5] (H-G[S5]GSF[S5]HKKKKFGKA[S5]VGE[S5]AKK-NH2; staple 2-6, 16-20) | 4 mg/L | >64 mg/L | > 200 mg/L | 4 mg/L | > 200 mg/L | 4 mg/L | >64 mg/L |
| CC(C)[C@@H]1NC(=O)[C@@](C)(NC(=O)[C@H](C)NC(=O)[C@H](CCCCN)NC(=O)CNC(=O)[C@H](Cc2ccccc2)NC(=O)[C@H](CCCCN)NC(=O)[C@H](CCCCN)NC(=O)[C@H](CCCCN)NC(=O)[C@H](CC(N)=O)NC(=O)[C@H](Cc2c[nH]cn2)NC(=O)[C@]2(C)CCCC=CCCC[C@](C)(NC(=O)CN)C(=O)NCC(=O)N[C@@H](CCCCN)C(=O)N[C@@H](Cc3ccccc3)C(=O)N2)CCCC=CCCC[C@@](C)(C(=O)N[C@@H](C)C(=O)N[C@@H](CCCCN)C(=O)N[C@@H](CCCCN)C(N)=O)NC(=O)[C@H](CCC(=O)O)NC(=O)CNC1=O [compound 6] (H-G[S5]GKF[S5]HNKKKFGKA[S5]VGE[S5]AKK-NH2; staple 2-6, 16-20) | 4 mg/L | >64 mg/L | > 200 mg/L | 4 mg/L | > 200 mg/L | 8 mg/L | >64 mg/L |
| CC(C)[C@@H]1NC(=O)[C@@](C)(NC(=O)[C@H](C)NC(=O)[C@H](CCCCN)NC(=O)CNC(=O)[C@H](Cc2ccccc2)NC(=O)[C@H](CCCCN)NC(=O)[C@H](CCCCN)NC(=O)[C@H](CCCCN)NC(=O)[C@H](CCC(N)=O)NC(=O)[C@H](Cc2c[nH]cn2)NC(=O)[C@]2(C)CCCC=CCCC[C@](C)(NC(=O)CN)C(=O)NCC(=O)N[C@@H](CCCCN)C(=O)N[C@@H](Cc3ccccc3)C(=O)N2)CCCC=CCCC[C@@](C)(C(=O)N[C@@H](C)C(=O)N[C@@H](CCCCN)C(=O)N[C@@H](CCCCN)C(N)=O)NC(=O)[C@H](CCC(=O)O)NC(=O)CNC1=O [compound 7] (H-G[S5]GKF[S5]HQKKKFGKA[S5]VGE[S5]AKK-NH2; staple 2-6, 16-20) | 6 mg/L | >64 mg/L | > 200 mg/L | 4 mg/L | > 200 mg/L | 8 mg/L | >64 mg/L |
| CC(C)[C@@H]1NC(=O)[C@@](C)(NC(=O)[C@H](C)NC(=O)[C@H](CCCCN)NC(=O)CNC(=O)[C@H](Cc2ccccc2)NC(=O)[C@H](CCCCN)NC(=O)[C@H](CCCCN)NC(=O)[C@H](CCCCN)NC(=O)[C@@H](NC(=O)[C@H](Cc2c[nH]cn2)NC(=O)[C@]2(C)CCCC=CCCC[C@](C)(NC(=O)CN)C(=O)NCC(=O)N[C@@H](CCCCN)C(=O)N[C@@H](Cc3ccccc3)C(=O)N2)[C@@H](C)O)CCCC=CCCC[C@@](C)(C(=O)N[C@@H](C)C(=O)N[C@@H](CCCCN)C(=O)N[C@@H](CCCCN)C(N)=O)NC(=O)[C@H](CCC(=O)O)NC(=O)CNC1=O [compound 8] (H-G[S5]GKF[S5]HTKKKFGKA[S5]VGE[S5]AKK-NH2; staple 2-6, 16-20) | 8 mg/L | >64 mg/L | > 200 mg/L | 4 mg/L | > 200 mg/L | 8 mg/L | >64 mg/L |
| CC(C)[C@@H]1NC(=O)[C@@](C)(NC(=O)[C@H](C)NC(=O)[C@H](CCCCN)NC(=O)CNC(=O)[C@H](Cc2ccccc2)NC(=O)[C@H](CCCCN)NC(=O)[C@H](CCCCN)NC(=O)[C@H](CCCCN)NC(=O)[C@H](Cc2ccc(O)cc2)NC(=O)[C@H](Cc2c[nH]cn2)NC(=O)[C@]2(C)CCCC=CCCC[C@](C)(NC(=O)CN)C(=O)NCC(=O)N[C@@H](CCCCN)C(=O)N[C@@H](Cc3ccccc3)C(=O)N2)CCCC=CCCC[C@@](C)(C(=O)N[C@@H](C)C(=O)N[C@@H](CCCCN)C(=O)N[C@@H](CCCCN)C(N)=O)NC(=O)[C@H](CCC(=O)O)NC(=O)CNC1=O [compound 9] (H-G[S5]GKF[S5]HYKKKFGKA[S5]VGE[S5]AKK-NH2; staple 2-6, 16-20) | 8 mg/L | >64 mg/L | > 200 mg/L | 4 mg/L | > 200 mg/L | 16 mg/L | >64 mg/L |
| CC(C)[C@@H]1NC(=O)[C@H](C(C)C)NC(=O)[C@@](C)(NC(=O)[C@H](C)NC(=O)[C@H](CCCCN)NC(=O)CNC(=O)[C@H](Cc2ccccc2)NC(=O)[C@H](CCCCN)NC(=O)[C@H](CCCCN)NC(=O)[C@H](CCCCN)NC(=O)[C@H](CO)NC(=O)[C@H](Cc2c[nH]cn2)NC(=O)[C@]2(C)CCCC=CCCC[C@](C)(NC(=O)CN)C(=O)NCC(=O)N[C@@H](CCCCN)C(=O)N[C@@H](Cc3ccccc3)C(=O)N2)CCCC=CCCC[C@@](C)(C(=O)N[C@@H](C)C(=O)N[C@@H](CCCCN)C(=O)N[C@@H](CCCCN)C(N)=O)NC(=O)[C@H](CCC(=O)O)NC1=O [compound 11] (H-G[S5]GKF[S5]HSKKKFGKA[S5]VVE[S5]AKK-NH2; staple 2-6, 16-20) | 2 mg/L | 7 mg/L | 227 mg/L (≈ 88.2 µM) | 2 mg/L | 203 mg/L (≈ 78.9 µM) | 6 mg/L | >64 mg/L |

Reference: US20240174723A1, “STAPLED ANTIMICROBIAL PEPTIDES (STAMPS) AND USES THEREOF” (Lytica Therapeutics, Inc., priority 2021, published 2024)
